From PMC4920072, “Peptide:glycosaminoglycan hybrid hydrogels as an injectable intervention for spinal disc degeneration” (Journal of Materials Chemistry. B, Materials for Biology …, 2016)

Tests used:
Assay type in all cases: physicochemical
[1] = Visually observed gelation time / physical state of peptide and peptide:GAG samples; conditions: for Time to gel: peptide concentration = 20 mg/ml, typical gelation times
Procedure: Therefore the GAGs must be directly interacting with the peptides via physical bonds to enhance their gelation.
c.) 200 P11-12 1-9 days Wavenumbers (cm-1) Wavenumbers (cm-1) […]
Figure S1. […]
Peptide GAG ratio Time to gel ( peptide concentration = 20 mg/ml)
P11-4 1:2 Seconds-minutes
Table S1. Typical gelation times in 20mg/ml samples
(also on this page, place not known: (cm -1 ) (cm -1 ) (cm -1 ) Estimated monomer (µM) Aromatic 0 / µM Apparent critical relative integral 0.125 mM TMSP concentration to concentration Seconds-minutesP11-4 SecondsP11-8 SecondsP11-9 P11-12) […]
Figure S3. From left to right P11-12, P11-12:PEG (Mw 10k), P11-12:PEG (Mw 100k). 130 mM NaCl in D2O, PEG added at same wt% as 1:10
Pep:GAG ratio. All samples = liquid

[2] = Transmission electron microscopy of peptide and peptide:GAG aggregates; conditions: TEM, uranyl acetate negative stain; for Twist pitch: peptide alone, 130 mM NaCl in D2O
Source text: We observe that incorporation of GAGs into peptide hydrogels also modifies their microscopic properties. Transmission electron microscopy images reveal pronounced differences in the fibril morphologies (Fig. 3a and Fig. S2, S3, ESI ^‡). Broadly speaking, the changes in gel structure between peptide-only and peptide:GAG gels are very similar. In peptide-only gels, the fibril widths are of the order of 10 nm. This compares to peptide:GAG gels where the fibrils align and cluster together with bundle diameters of the order of 100 nm. […] Transmission electron microscopy of uranyl acetate stained samples were carried out on a Philips CM10/Jeol JEM1400 electron microscope operating at 80/120 kV. Fourier transform infra-red spectra were acquired with a Thermo Scientific Nicolet 6700 FTIR spectrometer. […] TFA has a FTIR band located at 1673 cm-1 and peptides with greater number of arginine and ornithine residues will contain more TFA and therefore a large TFA peak in the FTIR spectra. Transmission electron microscopy, TEM P11-9 and P11-9:GAG samples were prepared in DPBS (Dubeccos phosphate buffered saline, Sigma Aldrich), solution containing 0.04% NaN3, (Sodium azide, Sigma Aldrich, 99%)to prevent bacterial growth. The samples were vortexed for 20 seconds, and then sonicated for 30 minutes. Solution pH was measured and adjusted to 7.4 ± 0.3. Any adjustment of pH, if necessary, was made with μL volumes of 0.1 to 1 mol dm-3 HCL (Hydrochloric acid, Fisher Scientific, analytical reagent grade, 37% wt diluted with purified water), and/or 0.1 to 1 mol dm-3 NaOH (Sodium hydroxide pellets, Fisher […], analytical grade, dissolved in and diluted with purified water). Solution vials were closed, sealed with PTFE tape, and then warmed to approximately 80 °C to maximise peptide solubility. Following warming GAG powder was added to the peptide solutions and the mixture was vortexed to ensure complete mixing The resulting gels were left to equilibrate for approximately four and a half months. For P11-4, P11-8 and P11-12, samples with and without GAG prepared for FTIR were used, these were left to equillibriate for 4 days prior to TEM grid preparation. The gels were then diluted (20 μl of sample in 60 μl D2O) minutes prior to addition to the TEM grids. Glow discharged carbon film coated copper TEM grids (Agar Scientific) were touched onto the peptide and peptide:gag solutions for one minute. The grid was air-dried and then negatively stained with uranyl acetate solution (2% w/v) for 20 seconds and air-dried. TEM images for P11-4, P11-8 and P11-12, samples with and without GAG were obtained using a Jeol JEM1400 transmission electron microscope operating […] voltage. TEM images of […] with and without GAG were obtained using a Philips CM10 electron microscope operating at 80 kV accelerating voltage. Rheometry Peptide and peptide:GAG samples were prepared in DPBS (Dubeccos phosphate buffered saline, Sigma Aldrich), solution containing 0.04% NaN3 (sodium azide, Sigma Aldrich, 99%). The samples were vortexed for 20 seconds, and then sonicated for 30 minutes. Solution pH was measured and adjusted to 7.4 ± 0.3. Any adjustment of pH, if necessary, was made with μL volumes of 0.1 to 1 mol dm-3 HCL (hydrochloric acid, Fisher Scientific, analytical reagent grade, 37% wt diluted with purified water), and/or 0.1 to 1 mol dm-3 NaOH (Sodium hydroxide pellets, Fisher […], analytical grade, dissolved in and diluted with purified water). Solution vials were closed, sealed with PTFE tape, and then warmed to approximately 80 °C to maximise peptide solubility. Following warming GAG powder was added to the peptide solutions and the mixture was vortexed to ensure complete mixing The resulting gels were left to equilibrate at room temperature (P11-4 20 days, P11-8 1.5 months, P11-9 one month and P11-12 two months). Rheometry measurements used a Malvern Kinexus Pro rheometer with a cone-plate geometry (cone angle: 1O, diameter: 50 mm, gap: 0.033 mm). […]

[3] = 1H NMR of free peptide monomer concentration (apparent critical aggregation concentration c*, equilibration); conditions: 1H NMR aromatic region integral relative to TMSP, 130 mM NaCl in D2O, pD 7.4, room temperature
Procedure: NMR characterisation of the free peptide monomer concentration that coexists in equilibrium with the peptide fibrils (and therefore the apparent c*) is found to decrease in the presence of GAG (Fig. 2a and Fig. S1a, ESI ^‡).
The thermodynamics are affected by the presence of GAG.
^1H Nuclear Magnetic Resonance spectra were recorded on a Bruker DPX300 300 MHz spectrometer. Transmission electron microscopy of uranyl acetate stained samples were carried out on a Philips CM10/Jeol JEM1400 electron microscope operating at 80/120 kV. Fourier transform infra-red spectra were acquired with a Thermo Scientific Nicolet 6700 FTIR spectrometer. Rheological measurements used a Malvern Kinexus Pro rheometer with a cone-plate geometry. […]
Peptide and peptide:GAG samples were prepared directly in D2O (Deuterium Oxide, Sigma Aldrich 99.9% D) containing 130 mM NaCl (Sodium Chloride, Fisher Scientific, analytical grade) and […] TMSP (deuterated Sodium 3-(trimethylsilyl)propionate-2,2,3,3-d4, Cambridge Isoptope Labortatories, chemical shift 0 ppm) an internal reference standard. […] Solution pD was measured and adjusted to 7.4 ± 0.3 using the relation pD = pH + 0.4.[1] […]
NMR data were acquired at room temperature with a Bruker DPX 300 spectrometer, operating at 300 MHz (5 mm probe, spectral width 5995 Hz). A presaturation program was used to minimize the water peak, and 1024 scans were measured per spectrum. […]

[4] = Control (peptide only, no GAG), visually observed, room temperature
[5] = peptide : GAG ratio 1:2, visually observed, room temperature
[6] = peptide : GAG ratio 1:10, visually observed, room temperature
[7] = peptide alone or peptide:GAG 1:10
[8] = peptide alone or peptide:GAG 1:10, 20 mg/ml, 130 mM NaCl in D2O (P11-9 samples in DPBS)

Ac-SSRFEWEFESS-NH2 [P11-9]
Time to gel [1, 4]: Minutes
Time to gel [1, 5]: Seconds
Time to gel [1, 6]: Seconds
Morphology [2, 7]: Ribbons
Ribbon width [2, 8]: 4 ± 1 nm

CH3CO-S-S-R-F-O-W-O-F-E-S-S-NH2 [P11-12]
Physical state of sample (gel or liquid) ([1]; 130 mM NaCl in D2O, PEG added at same wt% as 1:10 Pep:GAG ratio): liquid
Time to gel [1, 4]: Minutes
Time to gel [1, 5]: Seconds
Time to gel [1, 6]: Seconds
Time to gel ([1]; peptide : GAG ratio 1:50, visually observed, room temperature): Spontaneous
Time to gel ([1]; peptide : GAG ratio 1:100, visually observed, room temperature): Spontaneous
Gelation time ([1]; when higher GAG ratios were used, visually observed, room temperature): instantaneously
Time for the monomer concentration to equilibrate ([3]; GAG present at peptide : GAG ratio of 1 : 5): less than a week
Time for the monomer concentration to equilibrate ([3]; peptide only): within two months
Morphology [2, 7]: Twisted fibrils and ribbons
Fibril width [2, 8]: 10.1 nm
Large loose bundle /fibre width [2, 8]: 43.7 ± 11.5 nm
Ribbon width [2, 8]: 5.0 ± 0.8 nm
Twist pitch ([2]; 20 mg/ml): 114.3 ± 10.3 nm

Ac-QQRFEWEFEQQ-NH2 [P11-4]
Time to gel [1, 4]: Minutes -hours
Time to gel [1, 5]: Seconds-minutes
Time to gel [1, 6]: Seconds
Morphology [2, 7]: Twisted fibrils
Fibril width [2, 8]: 14.6 nm
Twist pitch ([2]; 20 mg/ml): 76.6 ± 17.1 nm

CH3CO-Q-Q-R-F-O-W-O-F-E-Q-Q-NH2 [P11-8]
Time to gel [1, 4]: days
Time to gel [1, 5]: seconds
Time to gel [1, 6]: Seconds
Morphology [2, 7]: Twisted fibrils
Fibril width [2, 8]: 13.2 nm
Ribbon width [2, 8]: 5.06 nm
Twist pitch ([2]; 20 mg/ml): 135.2 ± 22.1 nm
